Results as given in patent US6875451B2, “Compositions and methods for the treatment of primary and metastatic neoplastic diseases using arsenic compounds” (PolaRx Biopharmaceuticals Inc., priority 1997, dated 2005).

How the values were obtained:
Experiment in all cases: SRB growth assay, 2 days exposure, CNS cancer
Type in all cases: cell-based
SNB-75 = test system: SNB-75
Procedure: (§1) Arsenic trioxide (1 mg/ml, 10 mg/ampoule, manufactured by Taylor Pharmaceuticals, Decatur, Ill.) was tested at five concentrations each at 10-fold dilutions, i.e., 10^−5, 10^−6, 10^−7, 10^−8 and 10^−9 μg/ml.
(§2) The in vitro tests were performed by incubating the test cells in the presence of the indicated concentration of arsenic trioxide under standard culture conditions for a designated period of time, which is followed by a sulforhodamine B (SRB) protein assay to estimate cell viability or growth. The cell lines are organized into subpanels according to the origin of the cell lines, e.g., leukemia, breast cancer, etc. A description of the cell lines and method of testing is described in Monk et al. (1997, Anticancer Drug Des. 12:533-41) and Weinstein et al., (1997, Science 275:343-9), which are incorporated herein in their entirety.
(§3) The measurement of an effect is expressed in Percentage Growth (PG). The measured effect of the compound on a cell line is calculated according to one or the other of the following two expressions: If (Mean ODtest−Mean ODzero)≧0. then PG=100×(Mean ODtest−Mean ODzero)/(Mean ODctrl−Mean ODzero) If (Mean ODtest−Mean ODzero)<0. then PG=100×(Mean ODtest−Mean ODzero)/(Mean ODzero where: • Mean ODzero=the average of optical density measurements of SRB-derived color just before exposure of cells to the test compounds; • Mean ODtest=the average of optical density measurements of SRB-derived color after exposure of cells to the test compound for a designated period of time; and • Mean ODctrl=the average of optical density measurements of SRB-derived color after with no exposure of cells to the test compound for a designated period of time
(§4) The first two columns describe the subpanel (e.g., leukemia) and cell line (e.g., CCRF-CEM) involved. The next two columns list the Mean ODzero and Mean ODctrl; the next five columns list the Mean ODtest for each of five different concentrations. Each concentration is expressed as the log10 (molar or μg/ml). The next five columns list the calculated PGs for each concentration. The response parameters GI50, TGI and LC50 are interpolated values representing the concentrations at which the PG is +50, 0, and −50, respectively. Sometimes these response parameters cannot be obtained by interpolation. If, for instance, all of the PGs in a given row exceed +50, then none of the three parameters can be obtained by interpolation. In such a case, the value given for each response parameter is the highest concentration tested and is preceded by a “>” sign. This practice is extended similarly to the other possible situations where a response parameter cannot be obtained by interpolation.
(§5) In the first set, the cells from 56 different cancer cell lines were exposed to five concentrations of arsenic trioxide continuously for two days prior to performing the SRB assay. In the second set, the cells from 50 different cell lines (a subset of the first 56 cell lines, plus the renal cancer cell line 786-0) were exposed continuously for six days prior to the SRB assay.

SF-295 = test system: SF-295
Procedure: as §1, §2, §3, §4, §5

SNB-19 = test system: SNB-19
Procedure: as §1, §2, §3, §4, §5

U251 = test system: U251
Procedure: as §1, §2, §3, §4, §5

SF-268 = test system: SF-268
Procedure: as §1, §2, §3, §4, §5

With arsenic trioxide the TGI (SNB-75) was 0.00698 ng/mL, the “Percent Growth” value (SNB-75; log10 conc −4.9) was −17% and the “Percent Growth” value (SNB-75; log10 conc −5.9) was 37%. For the same substance, the “Percent Growth” value (SNB-75; log10 conc −6.9) was 115%, the “Percent Growth” value (SNB-75; log10 conc −7.9) was 100% and the “Percent Growth” value (SNB-75; log10 conc −8.9) was 77%. For the same substance, the TGI (SF-295) was >0.0126 ng/mL, the “Percent Growth” value (SF-295; log10 conc −4.9) was 51% and the “Percent Growth” value (SF-295; log10 conc −5.9) was 91%. The “Percent Growth” value (SF-295; log10 conc −6.9) was 91%, the “Percent Growth” value (SF-295; log10 conc −7.9) was 96% and the “Percent Growth” value (SF-295; log10 conc −8.9) was 93%. The TGI (SNB-19) was >0.0126 ng/mL, the “Percent Growth” value (SNB-19; log10 conc −4.9) was 36% and the “Percent Growth” value (SNB-19; log10 conc −5.9) was 97%. For the same substance, the “Percent Growth” value (SNB-19; log10 conc −6.9) was 98%, the “Percent Growth” value (SNB-19; log10 conc −7.9) was 97% and the “Percent Growth” value (SNB-19; log10 conc −8.9) was 93%. The TGI (U251) was 0.00437 ng/mL, the “Percent Growth” value (U251; log10 conc −4.9) was −68% and the “Percent Growth” value (U251; log10 conc −5.9) was 80%. The “Percent Growth” value (U251; log10 conc −6.9) was 101%, the “Percent Growth” value (U251; log10 conc −7.9) was 99% and the “Percent Growth” value (U251; log10 conc −8.9) was 98%. For the same substance, the TGI (SF-268) was >0.0126 ng/mL, the “Percent Growth” value (SF-268; log10 conc −4.9) was 23% and the “Percent Growth” value (SF-268; log10 conc −5.9) was 100%. The “Percent Growth” value (SF-268; log10 conc −6.9) was 108%, the “Percent Growth” value (SF-268; log10 conc −7.9) was 94% and the “Percent Growth” value (SF-268; log10 conc −8.9) was 110%.
